Assay results: paper PMC12735921, “Evaluation of Antiproliferative Activity and Molecular Modeling Studies of Some Novel Benzimidazolone-Bridged Hybrid Compounds” (Pharmaceuticals, 2025)
Values joined by “and” are separate entries in the source; they are usually repeats but may differ in a detail not shown here. Equal values may be shown once. Values belong to the molecule of their own block, whether it stands above or below them.

How the values were obtained:
Type in all cases: cell-based, human
[1] = tested on: A549 cells; assay: MTT cell viability assay, A549; conditions: for IC50: Homo sapiens, A549, MTT, 48 h, mean ± SD, n = 3; for A549 Selectivity Index (SI): SI = IC50 (HEK 293)/IC50 (A549)
Description: (§1) Cell viability assay was performed on the human lung cancer (A549) (ATCC CCL-185), human breast cancer (MCF-7) (ATCC-HTB-22), cervical cancer (HeLa) (ATCC-CCL-2), and human embryonic kidney 293 (HEK293) (ATCC-CRL-1573) cell lines, which were purchased from Deutsche Sammlung von Mikroorganismen und Zellkulturen (DSMZ, Braunschweig, Germany). The cells were maintained in Dulbecco’s modified Eagle’s medium (DMEM), supplemented with 10% fetal bovine serum (FBS), 2 mM L-glutamine, 100 U/mL penicillin, and 100 mg/L streptomycin (Biochrom AG, Berlin, Germany) at 37 °C in a humidified atmosphere of 5% CO2.
(§2) The cytotoxic effect was determined by the MTT (3-(4,5-dimethyl-2-thiazolyl)-2,5-diphenyl-2H-tetrazolium bromide) cell viability assay. Cells were seeded at an initial concentration of 1 × 10^5 cells/mL in 96-well microplates. Cells were then treated with different concentrations (0.5, 5, 10, 25, 50, 100 and 200 µM) of the novel synthesized compounds for 48 h. After the incubation period, the formed formazan crystals were dissolved in dimethyl sulfoxide (DMSO), and the optical density (OD) of the compounds was measured at 570 nm using a spectrophotometer (BMG Labtech, Ortenberg, Germany). Cytotoxicity was expressed as an increase in the mean percentage of cytotoxicity relative to the unexposed control ± standard deviation (SD). […] Control values were set at 0% cytotoxicity. IC50 was calculated by fitting the data to a sigmoidal curve using a four-parameter logistic model and was presented as an average of three independent measurements. […] Doxorubicin was used as a positive control. Each sample was tested in triplicate.
(§3) To evaluate the selectivity of the tested compound(s) toward cancer cells over normal cells, the Selectivity Index (SI) was calculated using the following formula:SI = IC50 (normal cells)/IC50 (cancer cells)
(§4) An SI value greater than 2 was considered to indicate selective cytotoxicity, while values below 2 were interpreted as non-selective. Higher SI values reflect greater therapeutic potential due to reduced toxicity toward normal cells.

[2] = tested on: MCF-7 cells; assay: MTT cell viability assay, MCF-7; conditions: for IC50: Homo sapiens, MCF7, MTT, 48 h, mean ± SD, n = 3; for MCF-7 Selectivity Index (SI): SI = IC50 (HEK 293)/IC50 (MCF-7)
Description: as §1, §2, §3, §4

[3] = tested on: HeLa cells; assay: MTT cell viability assay, HeLa; conditions: for IC50: Homo sapiens, HeLa, MTT, 48 h, mean ± SD, n = 3; for HeLa Selectivity Index (SI): SI = IC50 (HEK 293)/IC50 (HeLa)
Description: as §1, §2, §3, §4

[4] = tested on: HEK 293 cells; assay: MTT cell viability assay, non-cancerous HEK 293; conditions: Homo sapiens, HEK293, 48 h, mean ± SD, n = 3
Description: as §1
The cytotoxic effect was determined by the MTT (3-(4,5-dimethyl-2-thiazolyl)-2,5-diphenyl-2H-tetrazolium bromide) cell viability assay. Cells were seeded at an initial concentration of 1 × 10^5 cells/mL in 96-well microplates. Cells were then treated with different concentrations (0.5, 5, 10, 25, 50, 100 and 200 µM) of the novel synthesized compounds for 48 h. After the incubation period, the formed formazan crystals were dissolved in dimethyl sulfoxide (DMSO), and the optical density (OD) of the compounds was measured at 570 nm using a spectrophotometer (BMG Labtech, Ortenberg, Germany). Cytotoxicity was expressed as an increase in the mean percentage of cytotoxicity relative to the unexposed control ± standard deviation (SD). […] Control values were set at 0% cytotoxicity. IC50 was calculated by fitting the data to a sigmoidal curve using a four-parameter logistic model and was presented as an average of three independent measurements. […] Each sample was tested in triplicate.

[5] = tested on: A549 cells; assay: LDH leakage assay, A549; conditions: A549, IC50 concentration of compound, 48 h; H2O2 positive control; mean ± SD, n = 3
Description: (§5) One hundred microliters of culture medium was transferred to a new 96-well plate. One hundred microliters of LDH reaction solution was added to each well, and absorbance was measured at 490 nm using an ELISA plate reader (BMG Labtech, Ortenberg, Germany) after 30 min.

[6] = tested on: A549 cells; assay: Total oxidative status (TOS), A549; conditions: A549, IC50 concentration of compound, 48 h; H2O2 250 µM positive control; mean ± SD, n = 3
Description: (§6) TOS were evaluated using a commercially available kit (Rel Assay Diagnostics®, Gaziantep, Turkey) according to the manufacturer’s instructions. […] The TOS assay quantifies oxidizing agents based on their ability to convert an iron (II) ion chelator complex to iron (III) ions. The results were calibrated against hydrogen peroxide (H2O2, 250 µM) as a positive control for 48 h and expressed as µmol H2O2 equivalents per liter. The analysis was performed in three independent biological replicates (n = 3).

[7] = tested on: A549 cells; assay: Intracellular GSH/GSSG ratio, A549; conditions: A549, IC50 concentration of compound, 48 h; H2O2 positive control; mean ± SD, n = 3
Description: (§7) Intracellular reduced (GSH) and oxidized (GSSG) glutathione levels were measured using the GSH/GSSG Ratio Detection Assay Kit (Cayman Chemical, Ann Arbor, MI, USA, Cat. No: 703002) according to the manufacturer’s protocol. […] After treatment, cells were washed with cold PBS and lysed with MES buffer provided in the kit.
(§8) To prevent oxidation of GSH to GSSG during processing, samples were deproteinized using the supplied metaphosphoric acid solution and neutralized accordingly. Total glutathione and GSSG levels were measured separately by adding the appropriate buffers and reagents to the wells of a 96-well plate, followed by the addition of DTNB recycling reagent and glutathione reductase. Absorbance was read at 405 nm using a microplate reader (BMG Labtech, Germany). The amount of GSH was calculated by subtracting 2 × GSSG from the total glutathione, and the GSH/GSSG ratio was used to assess intracellular redox status.

[8] = tested on: A549 cells; assay: Cell cycle analysis (PI staining, flow cytometry), A549; conditions: A549, IC50 concentration, 48 h, mean ± SEM, n = 3
Description: (§9) Cell cycle distribution was assessed by propidium iodide (PI) staining and flow cytometry. HeLa, MCF-7, and A549 cells were seeded in 6-well plates at a density of 1 × 10^5 cells per well and allowed to attach overnight. […] Following exposure, both adherent and floating cells were collected, washed twice with cold phosphate-buffered saline (PBS, pH 7.4), and fixed overnight in 70% cold ethanol at 4 °C. After fixation, the cells were centrifuged and resuspended in 500 µL of PI/RNase staining solution containing 50 µg/mL PI and 100 µg/mL RNase A (Sigma-Aldrich®, St. Louis, MO, USA), followed by incubation in the dark for 30 min at 37 °C. The stained samples were analyzed using a Muse™ Cell Analyzer (Merck, Millipore, Germany) equipped with a 488 nm excitation laser and a 617 nm emission filter. A minimum of 10,000 events per sample were acquired after exclusion of debris and doublets via FSC-A vs. FSC-H gating. The DNA content histograms were generated automatically, and cell populations were expressed as percentages of G0/G1, S, and G2/M phases using the Muse™ Cell Cycle Analysis Software 1.5.0.0. All assays were conducted in triplicate biological repeats (n = 3), and results were reported as mean ± SEM.

[9] = tested on: HeLa cells; assay: LDH leakage assay, HeLa; conditions: IC50 concentration of compound, 48 h, H2O2 positive control, mean ± SD, n = 3
Description: as §5

[10] = tested on: MCF-7 cells; assay: LDH leakage assay, MCF-7; conditions: MCF-7, IC50 concentration of compound, 48 h; H2O2 positive control; mean ± SD, n = 3
Description: as §5

[11] = tested on: HeLa cells; assay: Total oxidative status (TOS), HeLa; conditions: IC50 concentration of compound, 48 h, H2O2 250 µM positive control, mean ± SD, n = 3
Description: as §6

[12] = tested on: MCF-7 cells; assay: Total oxidative status (TOS), MCF-7; conditions: MCF-7, IC50 concentration of compound, 48 h; H2O2 250 µM positive control; mean ± SD, n = 3
Description: as §6

[13] = tested on: HeLa cells; assay: Intracellular GSH/GSSG ratio, HeLa; conditions: IC50 concentration of compound, 48 h, H2O2 positive control, mean ± SD, n = 3
Description: as §7, §8

[14] = tested on: MCF-7 cells; assay: Intracellular GSH/GSSG ratio, MCF-7; conditions: MCF-7, IC50 concentration of compound, 48 h; H2O2 positive control; mean ± SD, n = 3
Description: as §7, §8

[15] = tested on: HeLa cells; assay: Cell cycle analysis (PI staining, flow cytometry), HeLa; conditions: IC50 concentration, 48 h, mean ± SEM, n = 3
Description: as §9

[16] = tested on: MCF-7 cells; assay: Cell cycle analysis (PI staining, flow cytometry), MCF-7; conditions: MCF-7, IC50 concentration, 48 h, mean ± SEM, n = 3
Description: as §9

IC50 [1]: 29.5 ± 1.7 µM
IC50 [2]: 41.3 ± 2.4 µM
IC50 [3]: 31.6 ± 1.82 µM
Compound: O=c1[nH]c2cc(Cl)c(Cl)cc2[nH]1 [Compound 1, 5,6-Dichloro-1,3-dihydro-2H-benzimidazol-2-one]
A549 Selectivity Index (SI) [1]: 2.03
MCF-7 Selectivity Index (SI) [2]: 1.46
HeLa Selectivity Index (SI) [3]: 1.9
IC50 [4]: 60.1 ± 3.47 µM
LDH [5]: 19.8 ± 1.7 µU/mL and 19.8 ± 1.7 ^a,b µU/mL
TOS [6]: 6.1 ± 0.4 µmol H2O2 eq/L and 6.1 ± 0.4 ^a,b µmol H2O2 eq/L
GSH/GSSG [7]: 13.5 ± 1.3 nmol/mg Protein and 13.5 ± 1.3 ^a,b nmol/mg Protein
cells in G0/G1 phase [8]: 57.2 ± 1.9%
cells in G2/M phase [8]: 20.1 ± 1.5%
cells in S phase [8]: 22.7 ± 1.5%

IC50 [1]: 27.4 ± 1.58 µM
IC50 [2]: 19.1 ± 1.1 µM
IC50 [3]: 10.6 ± 0.61 µM
Compound: O=c1n(Cc2nnc(S)o2)c2cc(Cl)c(Cl)cc2n1Cc1nnc(S)o1 [Compound 7, 5,6-Dichloro-1,3-bis((5-mercapto-1,3,4-oxadiazol-2-yl)methyl)-1H-benzo[d]imidazol-2(3H)-one]
A549 Selectivity Index (SI) [1]: 1.4
MCF-7 Selectivity Index (SI) [2]: 2.01
HeLa Selectivity Index (SI) [3]: 3.63
IC50 [4]: 38.5 ± 2.2 µM
LDH [9]: 30.9 ± 2.7 µU/mL and 30.9 ± 2.7 ^a,b µU/mL
LDH [10]: 25.3 ± 2.0 µU/mL and 25.3 ± 2.0 ^a,b µU/mL
TOS [11]: 8.6 ± 0.7 µmol H2O2 eq/L and 8.6 ± 0.7 ^a,b µmol H2O2 eq/L
TOS [12]: 7.6 ± 0.6 µmol H2O2 eq/L and 7.6 ± 0.6 ^a,b µmol H2O2 eq/L
GSH/GSSG [13]: 9.4 ± 1.0
GSH/GSSG [14]: 11.3 ± 1.0 nmol/mg Protein and 11.3 ± 1.0 ^a,b nmol/mg Protein
cells in G0/G1 phase [15]: 38.4 ± 2.1%
cells in G2/M phase [15]: 38.4 ± 1.9%
cells in S phase [15]: 23.2 ± 1.5%
cells in G0/G1 phase [16]: 69.0 ± 2.0%
cells in G2/M phase [16]: 13.8 ± 1.2%
cells in S phase [16]: 17.2 ± 1.3%
